From patent publication US9872833B2, “Liposome composite body” (National University Corporation Tottori University, priority 2011, dated 2018)

Key:
[1] = Measurement of singlet oxygen; type: physicochemical; details: excitation wavelength 690 nm, 20 mW; singlet oxygen detected at 1,270 nm
Protocol: The measurement conditions are as follows.
Excitation was carried out with a dye laser using an excitation wavelength of 690 nm, an average output of 20 mW, a repetition frequency of 30 Hz, a pulse width of about […], and DCM.
For detection, light was dispersed by a spectroscope (focal distance: 250 mm, grating: 600 L/mm) using a gated near-infrared image intensifier (NIR-PII) cooled at −80° C., followed by measurement for 200 microseconds from 30 microseconds after excitation.
In FIG. 10, the red line indicates the generation of singlet oxygen (1,270 nm) derived from ICG-8, and the blue line indicates singlet oxygen scavenging by β-carotene (concentration: 4 μM).
(§1) The measurement conditions were as follows.
In FIG. 12, the red line indicates the generation of singlet oxygen (1,270 nm) derived from ICG-11, and the blue line indicates singlet oxygen scavenging by β-carotene (concentration: 6 μM).

[2] = Fluorescence spectrum of liposome dispersions; type: physicochemical; details: liposome dispersion; excitation wavelength 736 nm
Protocol: (1) Fluorescence Spectrum
Dispersion of Liposome Including ICG (ICG
(§2) A chloroform/methanol (9:1, v/v) solution containing 10.0 mM of egg yolk-derived phosphatidylcholine and 3.2×10^−2 mM of ICG (Diagnogreen injection, Daiichi Sankyo) was prepared; 3 mL thereof was subjected to the distillation off of the solvent under reduced pressure; and 3 mL of a physiological saline was added to the formed thin membrane, which was then treated using a filter having a pore diameter of 0.22 μm to provide liposomes.
(§3) Dispersion of Liposome Having ICG-8 in Lipid Bilayer Membrane (LP-ICG-8)
as §2, with “ICG-8” for “ICG (Diagnogreen injection, Daiichi Sankyo)”
When the above liposome dispersions were measured for fluorescence spectra (Jasco FP-6600), fluorescence spectra as shown in FIG. 2 were obtained at an excitation wavelength of 736 nm. The maximum fluorescence wavelength for ICG was 852 nm, and the maximum fluorescence wavelength for ICG-8 was 854 nm.

[3] = Loading amount in liposome (gel filtration); type: physicochemical; details: liposomes formed at ICG:DOPC of 1:40 or 1:20
Protocol: The amount of ICG-11 loadable in the liposome was examined by changing the mixing ratio between ICG-11 and dioleoylphosphatidylcholine (DOPC) as the main component of the lipid bilayer membrane. For comparison, the amount of loadable ICG was examined.
In chloroform/methanol (9:1, v/v) solution were dissolved DOPC (10 mM), cholesterol (5 mM), polyethylene glycol-modified phosphatidylethanolamine (PEG-PE, 0.5 mM), and ICG-11 (0 to 5 mM) or ICG (0 to 0.5 mM); a portion of the resultant solution was dried under reduced pressure; and a physiological saline was added to the formed thin membrane, which was then treated using a filter having a pore diameter of 100 nm to provide a liposome dispersion.
The amount of incorporation of ICG-11 into the lipid bilayer membrane when it formed a liposome was measured using the following conditions.
Liposomes into which ICG-11 or ICG was incorporated and ICG-11 or ICG released into a liposome dispersion without being incorporated into the lipid bilayer membrane were separated and determined using a gel filtration column (PD-10 from GE) (FIG. 14).

[4] = Fluorescence spectral characteristic of ICG-11 in polar and non-polar solvent; type: physicochemical; details: 1 μM; for fluorescence emission: in chloroform as non-polar solvent
Protocol: (1) Fluorescence Spectral Characteristic of ICG-11
The physical properties of ICG-11 were examined in aqueous solutions different in polarity in comparison with ICG.
(a) Comparison in Methanol as Polar Solvent
(b) Comparison in Chloroform as Non-Polar Solvent
In FIG. 11, the black and red lines indicate the results for ICG-11 (concentration: 1 μM) and ICG (concentration: 1 μM), respectively.

[5] = system: cancer (glioma) under the skin using the brain tumor cells 9 L; assay: Near-infrared camera image after intravenous administration (tumor accumulation); type: in vivo, rat; details: 500 μL through the cervical vein; 5 minutes after administration; 9 L tumor-bearing rats
Protocol: (2) Near-Infrared Camera Image after Intravenous Administration
ICG Aqueous Solution (ICG)
ICG was dissolved to 3.2 mM in pure water and diluted by 100-fold with a physiological saline.
as §3
A chloroform/methanol (9:1, v/v) solution containing egg yolk-derived phosphatidylcholine (10.0 mM), cholesterol (1.0 mM), polyethylene glycol-modified phosphatidylethanolamine (PEG-PE) (5.0×10^−1 mM), and ICG-8 (3.2×10^−2 mM) was prepared; 5 mL thereof was evaporated under reduced pressure; 5 mL of a physiological saline was added to the formed thin membrane, which was then treated using a filter having a pore diameter of 0.22 μm; and the resultant was further treated using a filter having a pore diameter of 0.05 μm to provide liposomes.
F344/Jc1 34-36 weeks 9 L rats were used for the test. […] After cutting the hair over the tumor location, 500 μL of the ICG aqueous solution or LP-ICG-8 was administered through the cervical vein. Fluorescent observation (Hyper Eye Medical System from Mizuho Corporation, excitation wavelength: 760 to 780 nm, fluorescence wavelength: >780 nm) was carried out 5 minutes after administration (FIG. 3). The distance between each rat and the camera head was 50 cm.

[6] = Heat generating capacity of ICG-11; type: physicochemical; details: excitation 808 nm, 0.5 W/m^2; ICG-11 0 to 4 μM
Protocol: (3) Heat Generating Capacity of ICG-11
The heat generating capacity of […] was measured using the following conditions.
as §1
Excitation was carried out at an excitation wavelength of 808 nm and an output of 0.5 W/m^2. The temperature was measured at 1-second intervals.
In FIG. 13, the black, red, blue, and green lines indicate the results when the concentration of ICG-11 was 0 μM, 1 μM, 2 μM, and 4 μM, respectively.

Row | maximum fluorescence wavelength [2] [nm] | fluorescence emission [4] | fluorescence compared to ICG ([4]; in methanol as polar solvent) [fold] | Molecule | singlet oxygen-producing capacity [1] | dye not incorporated into the lipid bilayer membrane [3] | accumulation in the tumor tissue (fluorescent observation) [5] | heat generating capacity [6]
1 | 854 | – | – | 4-(2-((1E,3E,5E,7E)-7-(1,1-dimethyl-3-octadecyl-1H-benzo[e]indol-2(3H)-ylidene)hepta-1,3,5-trienyl)-1,1-dimethyl-1H-benzo[e]indolium-3-yl)butane-1-sulfonic acid [ICG-8] | had a singlet oxygen-producing capacity | – | – | –
2 | 852 | not emitting fluorescence | – | CC1(C)C(/C=C/C=C/C=C/C=C2\N(CCCCS(=O)(=O)O)c3ccc4ccccc4c3C2(C)C)=[N+](CCCCS(=O)(=O)[O-])c2ccc3ccccc3c21 [ICG, indocyanine green, reference compound] | – | ICG not incorporated into the lipid bilayer membrane increased in the dispersion | did not result in the accumulation of ICG in the tumor tissue | –
3 | – | sufficiently strong fluorescence | 1.5 | CCCCCCCC/C=C\CCCCCCCC(=O)OC[C@H](COP(=O)(O)OCCNC(=O)CCN1/C(=C/C=C/C=C/C=C/C2=[N+](CCCCS(=O)(=O)O)c3ccc4ccccc4c3C2(C)C)C(C)(C)c2c1ccc1ccccc21)OC(=O)CCCCCCC/C=C\CCCCCCCC [ICG-11, 4-(2-((1E,3E,5E,7E)-7-(3-(2-(1,2-dioleoyl-sn-glycero-3-phosphoethanolaminocarbonyl)ethyl)-1,1-dimethyl-1H-benzo[e]indol-2(3H)-ylidene)hepta-1,3,5-trienyl)-1,1-dimethyl-1H-benzo[e]indolium-3-yl)butane-1-sulfonic acid] | had a singlet oxygen-producing capacity | – | – | had a heat-generating capacity (increasing the tissue temperature from 37 °C to 43° C.)
